Source: patent US9896730B2, “Use of EMT gene signatures in cancer drug discovery, diagnostics, and treatment” (OSI Pharmaceuticals, LLC, priority 2011, dated 2018)
“Also recorded” adds a separate entry of the source.

Key:
lung tumors = conditions: adenocarcinoma patients versus squamous cell carcinoma patients; cited from earlier work
H358 cells [1] = assay: Cell proliferation (Cell Titer Glo): erlotinib sensitivity in H358 EMT models; format: cell-based, human; conditions: ligand- and snai1-induced EMT
Method: (§1) Measurement of Cell Proliferation: Cell proliferation was determined using the Cell Titer Glo assay (Promega Corporation, Madison, Wis.). Cell lines were seeded at a density of 3000 cells per well in a 96-well plate. For assessment of drug effects on proliferation, 24 hours after plating, cells were dosed with varying concentrations of drug, either as a single agent or in combination. The signal for Cell Titer Glo was determined 72 hours after dosing.
(§2) Ligand-driven EMT models: NCI-H358 cells were cultured in RPMI medium (Gibco #21870) with 10% fetal bovine serum (Sigma), 1 mM sodium pyruvate (Gibco #11360), 2 mM L-glutamine (Gibco #25030) and 10 mM HEPES (Gibco #15630). For ligand treatment, cells were seeded in normal growth medium and stimulated the following day (Day 0) with 100 ng/ml HGF (Peprotech #100-39), 100 ng/ml OSM (R and D systems, 295-OM), 2.5 ng/ml TGFβ1 (EMD Biosciences #616450) or combinations of the three. Medium was changed and fresh ligand was added on day 4 and day 6 after stimulation, such that samples were stimulated with fresh ligand 24 hrs prior to RNA isolation. For analysis containing drug treatments, DMSO or Drug was added to the samples at time of ligand treatments. Samples were taken for RNA Day 1, Day 4 and Day 7. […]

H1650 cells = assay: Cell proliferation (Cell Titer Glo): erlotinib sensitivity in H1650 EMT model; format: cell-based, human; conditions: H1650 cells in vitro, before or after EMT induction
Method: as §1, §2

[2] = tested on: advanced, treatment-refractory NSCLC; conditions: Phase III, monotherapy, patients with advanced; cited from earlier work
H358 cells [3] = assay: 88 gene EMTGS qPCR and EMT characterization, ligand-driven H358 EMT model; format: cell-based, human; conditions: 7 day ligand stimulation
Method: as §2, with “7. NCI-H1650 and NCI-H292 cells were grown in RPM medium (Gibco #21870) with 10% fetal bovine serum (Sigma), 1 mM sodium pyruvate (Gibco #11360), 2 mM L-glutamine (Gibco #25030) and 10 mM HEPES (Gibco #15630). CFPAC1 cells (ATCC #CRL-1918) were cultured in DMEM (Gibco #11960) supplemented with 10% FBS (Sigma), 2 mM L-glutamine (Gibco #25030). A549 cells were cultured in MEM with 10% fetal bovine serum, 2 mM L-glutamine and 1 mM sodium pyruvate. Cells were treated with ligand for 7 days and harvested as described for NCI-H358 cells in [249] unless otherwise noted.” for “7.”
(§3) Normalization genes used with 88 gene EMTGS for RT-PCR Analysis: The genes GTF2B, GAPDH, SDHA, and ACTB were chosen as normalization genes in qPCR analysis. […] The Delta Ct is then calculated as follows: Delta Ct=(Ct value of Gene X)−(Geometric mean of all normalization genes) For calculation of fold change between a control sample and a treated sample: Control sample=2^(−Delta Ct) Treated sample=2^(−Delta Ct) Fold change=Treated sample/Control sample Values below 1 (ratios) are converted to fold change by multiplying by −(1/X)

A549 cells = assay: 88 gene EMTGS qPCR, A549 cells treated with TNF and TAK1 siRNA; format: cell-based, human; conditions: relative to untreated cells
Method: as §2, §3

Molecule: C#Cc1cccc(Nc2ncnc3cc(OCCOC)c(OCCOC)cc23)c1 [erlotinib, [6,7-bis(2-methoxyethoxy)-4-quinazolin-4-yl]-(3-ethynylphenyl)amine]
- clinical response (lung tumors): respond better
- sensitivity to erlotinib after EMT induction (H358 cells [1]): decreased sensitivity; also recorded: decreases
- sensitivity to erlotinib (H1650 cells): not sensitive
- disease progression [2]: delayed disease progression
- survival [2]: significantly prolonged survival
- worsening of lung cancer-related symptoms [2]: delayed worsening

Molecule: HGF: hepatocyte growth factor, EMT-inducing ligand
- extent of EMT induced (morphology, biomarker, phenotypic changes) (H358 cells [3]): partial EMT

Molecule: TGFβ: transforming growth factor β, EMT-inducing ligand
- extent of EMT induced (morphology, biomarker, phenotypic changes) (H358 cells [3]): more advanced EMT

Molecule: TNFa
- effect on epithelial genes of 88 gene EMTGS (A549 cells): downregulation
- effect on mesenchymal genes of 88 gene EMTGS (A549 cells): upregulation

B1: OSM: oncostatin M, EMT-inducing ligand (protein, UniProt P13725 26-221, looked up)
Oncostatin-M: AAIGSCSKEYRVLLGQLQKQTDLMQDTSRLLDPYIRIQGLDVPKLREHCRERPGAFPSEETLRGLGRRGFLQTLNATLGCVLHRLADLEQRLPKAQDLERSGLNIEDLEKLQMARPNILGLRNNIYCMAQLLDNSDTAEPTKAGRGASQPPTPTPASDAFQRKLEGCRFLHGYHRFMHSVGRVFSKWGESPNRSRR
- extent of EMT induced (morphology, biomarker, phenotypic changes) (H358 cells [3]): partial EMT
